Measured values: patent US8273724B2, “Melanoma antigens and their use in diagnostic and therapeutic methods” (The United States of America, as represented by the …, priority 1994, dated 2012)
pIC50: −log10 of the molar value. Like-named read-outs stand apart in the source and are kept apart here. Where a SMILES comes first, the peptide text is derived from it.

How the values were obtained:
HLA-A2.1 = HLA-A2.1 (Homo sapiens, UniProt P04439, D140Y/D185E/D98H/E176V/E277Q/G131W/G231S/I119V/I121R/I166T/I218V/L300P/L318F/N151K/N90K/P208A/P217A/Q86G/Q94H/R138H/R169H/T345S); experiment: HLA-A2.1 binding assay of modified peptides, inhibition of radiolabeled Hbc 18-27 (Example 5); conditions: modified gp100 G9-154 peptides; read-out: Binding affinity to HLA-A2.1
[1] = system: T2 cell lines preincubated with peptide; experiment: Recognition of modified peptides by natural epitope (M9-2, G9-154, G9-209, G9-280) reactive T-cells, 51Cr release on peptide-pulsed T2 cells (Example 5); assay type: cell-based, human
Experimental: Assessment of antigen recognition by CTL. ^51Cr release cytotoxic assays were performed to detect the recognition of peptide and melanoma cells by CTL. To analyze peptide recognition, T2 cell lines were preincubated for 2 h at 37° C. with 1 ug/ml peptide, washed and used as target cells in a ^51Cr release cytotoxic assay. The melanoma lines 624mel was established in our laboratory (See Example 1).
In order to make more immunogenic peptides for induction of anti-melanoma T-cells than natural melanoma epitopes, a variety of peptides in which at least 1 amino acid was changed based on consensus motifs in peptides binding to a specific MHC Class I allele Falk, et al. (1991) Nature 351:290; Kubo et al. (1994) J. Immunol 152:3913; Parker, K. et al. (1992) Journal of Immunology 149:3580; Ruppert, J. et al. (1993) Cell 74:929-937) (Tables 14, 15, 16, and 17). […] By changing amino acid at the 1st, 2nd, 3rd or 9th positions which are important for HLA-A2 binding to the peptide, but less important for recognition by T-cell receptors, artificial peptides which can bind to HLA-A2.1 with higher affinity and still be recognized by natural epitope specific T-cells may be generated.

HLA-A2.1+ T2 cells = conditions: for % specific lysis at E:T = 40:1: peptide 1 ug/ml

Compound | pIC50 (HLA-A2.1) | Recognition by G9-154 reactive T-cell [1] | also measured
CC(C)[C@H](NC(=O)[C@H](CCC(N)=O)NC(=O)[C@H](Cc1c[nH]c2ccccc12)NC(=O)[C@H](Cc1ccc(O)cc1)NC(=O)[C@H](CCC(N)=O)NC(=O)CNC(=O)[C@H](Cc1c[nH]c2ccccc12)NC(=O)[C@@H](NC(=O)[C@H](C)N)[C@@H](C)O)C(=O)O [G9-154-1A] (H-ATWGQYWQV-OH; N-terminus and C-terminus assumed) | 8.28 | + (+, recognized) | 
CC(C)C[C@H](NC(=O)[C@@H](N)Cc1ccccc1)C(=O)N[C@@H](Cc1c[nH]c2ccccc12)C(=O)NCC(=O)N[C@@H](CCC(N)=O)C(=O)N[C@@H](Cc1ccc(O)cc1)C(=O)N[C@@H](Cc1c[nH]c2ccccc12)C(=O)N[C@@H](CCC(N)=O)C(=O)N[C@H](C(=O)O)C(C)C [G9-154-1F2L] (H-FLWGQYWQV-OH; N-terminus and C-terminus assumed) | 8.59 | − | 
CC(C)[C@H](NC(=O)[C@H](CCC(N)=O)NC(=O)[C@H](Cc1c[nH]c2ccccc12)NC(=O)[C@H](Cc1ccc(O)cc1)NC(=O)[C@H](CCC(N)=O)NC(=O)CNC(=O)[C@H](Cc1c[nH]c2ccccc12)NC(=O)[C@@H](NC(=O)[C@@H](N)Cc1ccccc1)[C@@H](C)O)C(=O)O [G9-154-1F] (H-FTWGQYWQV-OH; N-terminus and C-terminus assumed) | 8.80 | − | 
CC(C)C[C@H](NC(=O)[C@@H](N)CC(C)C)C(=O)N[C@@H](Cc1c[nH]c2ccccc12)C(=O)NCC(=O)N[C@@H](CCC(N)=O)C(=O)N[C@@H](Cc1ccc(O)cc1)C(=O)N[C@@H](Cc1c[nH]c2ccccc12)C(=O)N[C@@H](CCC(N)=O)C(=O)N[C@H](C(=O)O)C(C)C [G9-154-1L2L] (H-LLWGQYWQV-OH; N-terminus and C-terminus assumed) | 8.80 | + (+, recognized) | 
CC(C)C[C@H](N)C(=O)N[C@H](C(=O)N[C@@H](Cc1c[nH]c2ccccc12)C(=O)NCC(=O)N[C@@H](CCC(N)=O)C(=O)N[C@@H](Cc1ccc(O)cc1)C(=O)N[C@@H](Cc1c[nH]c2ccccc12)C(=O)N[C@@H](CCC(N)=O)C(=O)N[C@H](C(=O)O)C(C)C)[C@@H](C)O [G9-154-1L] (H-LTWGQYWQV-OH; N-terminus and C-terminus assumed) | 8.47 | + (+, recognized) | 
CC(C)C[C@H](NC(=O)[C@@H](N)Cc1c[nH]c2ccccc12)C(=O)N[C@@H](Cc1c[nH]c2ccccc12)C(=O)NCC(=O)N[C@@H](CCC(N)=O)C(=O)N[C@@H](Cc1ccc(O)cc1)C(=O)N[C@@H](Cc1c[nH]c2ccccc12)C(=O)N[C@@H](CCC(N)=O)C(=O)N[C@H](C(=O)O)C(C)C [G9-154-1W2L] (H-WLWGQYWQV-OH; N-terminus and C-terminus assumed) | 8.55 | − | 
CC(C)[C@H](NC(=O)[C@H](CCC(N)=O)NC(=O)[C@H](Cc1c[nH]c2ccccc12)NC(=O)[C@H](Cc1ccc(O)cc1)NC(=O)[C@H](CCC(N)=O)NC(=O)CNC(=O)[C@H](Cc1c[nH]c2ccccc12)NC(=O)[C@@H](NC(=O)[C@@H](N)Cc1c[nH]c2ccccc12)[C@@H](C)O)C(=O)O [G9-154-1W] (H-WTWGQYWQV-OH; N-terminus and C-terminus assumed) | 7.22 | − | 
CC(C)C[C@H](NC(=O)[C@@H](N)Cc1ccc(O)cc1)C(=O)N[C@@H](Cc1c[nH]c2ccccc12)C(=O)NCC(=O)N[C@@H](CCC(N)=O)C(=O)N[C@@H](Cc1ccc(O)cc1)C(=O)N[C@@H](Cc1c[nH]c2ccccc12)C(=O)N[C@@H](CCC(N)=O)C(=O)N[C@H](C(=O)O)C(C)C [G9-154-1Y2L] (H-YLWGQYWQV-OH; N-terminus and C-terminus assumed) | 8.77 | − | 
CC(C)[C@H](NC(=O)[C@H](CCC(N)=O)NC(=O)[C@H](Cc1c[nH]c2ccccc12)NC(=O)[C@H](Cc1ccc(O)cc1)NC(=O)[C@H](CCC(N)=O)NC(=O)CNC(=O)[C@H](Cc1c[nH]c2ccccc12)NC(=O)[C@@H](NC(=O)[C@@H](N)Cc1ccc(O)cc1)[C@@H](C)O)C(=O)O [G9-154-1Y] | 8.60 | − | 
CC(C)C[C@H](NC(=O)[C@@H](N)CCCCN)C(=O)N[C@@H](Cc1c[nH]c2ccccc12)C(=O)NCC(=O)N[C@@H](CCC(N)=O)C(=O)N[C@@H](Cc1ccc(O)cc1)C(=O)N[C@@H](Cc1c[nH]c2ccccc12)C(=O)N[C@@H](CCC(N)=O)C(=O)N[C@H](C(=O)O)C(C)C [G9-154-2L] (H-KLWGQYWQV-OH; N-terminus and C-terminus assumed) | 8.70 | + (+, recognized) | 
CSCC[C@H](NC(=O)[C@@H](N)CCCCN)C(=O)N[C@@H](Cc1c[nH]c2ccccc12)C(=O)NCC(=O)N[C@@H](CCC(N)=O)C(=O)N[C@@H](Cc1ccc(O)cc1)C(=O)N[C@@H](Cc1c[nH]c2ccccc12)C(=O)N[C@@H](CCC(N)=O)C(=O)N[C@H](C(=O)O)C(C)C [G9-154-2M] (H-KMWGQYWQV-OH; N-terminus and C-terminus assumed) | 8.19 | + (+, recognized) | 
CC(C)[C@H](NC(=O)[C@H](CCC(N)=O)NC(=O)[C@H](Cc1c[nH]c2ccccc12)NC(=O)[C@H](Cc1ccc(O)cc1)NC(=O)[C@H](CCC(N)=O)NC(=O)CNC(=O)[C@H](Cc1ccccc1)NC(=O)[C@@H](NC(=O)[C@@H](N)CCCCN)[C@@H](C)O)C(=O)O [G9-154-3F] (H-KTFGQYWQV-OH; N-terminus and C-terminus assumed) | 7.68 | + (+, recognized) | 
CC(C)[C@H](NC(=O)[C@H](CCC(N)=O)NC(=O)[C@H](Cc1c[nH]c2ccccc12)NC(=O)[C@H](Cc1ccc(O)cc1)NC(=O)[C@H](CCC(N)=O)NC(=O)CNC(=O)[C@H](Cc1ccc(O)cc1)NC(=O)[C@@H](NC(=O)[C@@H](N)CCCCN)[C@@H](C)O)C(=O)O [G9-154-3Y] (H-KTYGQYWQV-OH; N-terminus and C-terminus assumed) | 7.52 | + (+, recognized) | 
CC[C@H](C)[C@H](NC(=O)[C@@H](N)[C@@H](C)O)C(=O)N[C@H](C(=O)N[C@@H](CC(=O)O)C(=O)N[C@@H](CCC(N)=O)C(=O)N[C@H](C(=O)N1CCC[C@H]1C(=O)N[C@@H](Cc1ccccc1)C(=O)N[C@@H](CO)C(=O)N[C@H](C(=O)O)C(C)C)C(C)C)[C@@H](C)O [G10208] |  |  | % specific lysis at E:T = 40:1 (HLA-A2.1+ T2 cells; Exp. 1, TIL 620-1): 42%; % specific lysis at E:T = 40:1 (HLA-A2.1+ T2 cells; Exp. 1, TIL 620-2): 36%; % specific lysis at E:T = 40:1 (HLA-A2.1+ T2 cells; Exp. 1, TIL 660-1): 7%; % specific lysis at E:T = 40:1 (HLA-A2.1+ T2 cells; Exp. 1, TIL 1143): 4%; % specific lysis at E:T = 40:1 (HLA-A2.1+ T2 cells; Exp. 1, TIL 1200): 2%; % specific lysis at E:T = 40:1 (HLA-A2.1+ T2 cells; Exp. 1, TIL 1235): 3%; % specific lysis at E:T = 40:1 (HLA-A2.1+ T2 cells; Exp. 2, TIL 620-1): 35%; % specific lysis at E:T = 40:1 (HLA-A2.1+ T2 cells; Exp. 2, TIL 620-2): 80%; % specific lysis at E:T = 40:1 (HLA-A2.1+ T2 cells; Exp. 2, TIL 660-2): 7%; % specific lysis at E:T = 40:1 (HLA-A2.1+ T2 cells; Exp. 2, TIL 1143): 10%; % specific lysis at E:T = 40:1 (HLA-A2.1+ T2 cells; Exp. 2, TIL 1200): 1%; % specific lysis at E:T = 40:1 (HLA-A2.1+ T2 cells; Exp. 2, TIL 1235): 5%; TIL that recognize the peptide (HLA-A2.1+ T2 cells; cytotoxicity assays, T2 preincubated with peptide): recognized only by TIL620
CC[C@H](C)[C@H](NC(=O)CNC(=O)[C@H](CCSC)NC(=O)[C@H](C)N)C(=O)NCC(=O)N[C@H](C(=O)N[C@@H](CC(C)C)C(=O)N[C@H](C(=O)N[C@H](C(=O)O)C(C)C)[C@@H](C)O)[C@@H](C)CC [M9-2-2M] |  |  | Recognition by M9-2 reactive T-cell [1]: −
CC[C@H](C)[C@H](NC(=O)CNC(=O)[C@@H](NC(=O)[C@H](Cc1ccccc1)NC(=O)[C@H](C)NC(=O)[C@H](C)N)[C@@H](C)CC)C(=O)N[C@@H](CC(C)C)C(=O)N[C@H](C(=O)N[C@H](C(=O)O)C(C)C)[C@@H](C)O [M9-2-3F] |  |  | Recognition by M9-2 reactive T-cell [1]: −
CC[C@H](C)[C@H](NC(=O)CNC(=O)[C@@H](NC(=O)[C@H](Cc1c[nH]c2ccccc12)NC(=O)[C@H](C)NC(=O)[C@H](C)N)[C@@H](C)CC)C(=O)N[C@@H](CC(C)C)C(=O)N[C@H](C(=O)N[C@H](C(=O)O)C(C)C)[C@@H](C)O [M9-2-3W] |  |  | Recognition by M9-2 reactive T-cell [1]: −
